According to US7169815B2, “3-methoxybenzyl thiourea derivatives and improved lipid compositions containing same” (The United States of America as represented by the …, priority 2000, dated 2007):
Converted amounts (≈) assume the structure as drawn. Where two headings read alike, the source gives them in different places.

What was measured:
[1] = Oxidative Stability by Rotating Pressure Vessel (RBOT) of refined meadowfoam seed oil plus thiourea compounds; details: for Oxidative Stability (RBOT): Refined Meadowfoam Seed Oil plus 0.1% compound
Description: Another presently preferred method of determining oxidative stability of lipids and oils employs the Oxidative Stability by Rotating Pressure Vessel (RBOT) test. In this test, oxidative stability, determined according to the ASTM D2272-98 test method (ASTM, 2001, “Standard Test Method for Oxidation Stability of Steam Turbine Oils by Rotating Pressure Vessel,” in Book of Standards, Vol. 05.01., American Society for Testing and Materials, West Conshohocken, Pa.), measures the time for oxygen pressure to decrease in a closed stainless steel vessel containing a lipid or oil when heated with a copper coil catalyst. Oxygen taken up by the lipid or oil during the reaction is an indication of oil degradation.
In these experiments, Oxidative Stability by Rotating Pressure Vessel (RBOT) tests were performed with different 3-methoxybenzyl thiourea compounds synthesized in Example 3 that were mixed in different quantities with different mono- and polyunsaturated vegetable oils. Hexane was used to clean and store the copper coils, but all other aspects of the Oxidative Stability by Rotating Pressure Vessel (RBOT) test were the same as in the standard ASTM D2272–98 test method (ASTM, 2001, “Standard Test Method for Oxidation Stability of Steam Turbine Oils by Rotating Pressure Vessel,” in Book of Standards, Vol. 05.01., American Society for Testing and Materials, West Conshohocken, Pa.).

[2] = UVB and UVA molar absorptivities in chloroform; type: physicochemical; details: 0.01 mg/ml in chloroform; for UVBMAX Molar Absorptivity: Amax in 280–320 nm; for UVAMAX Molar Absorptivity: Amax in 320–400 nm
Description: The compounds synthesized in Example 3 were tested to determine their ability to absorb […] UVA light. UV spectra of quantitatively weighed and diluted samples (0.01 mg/ml) in chloroform were scanned from 244–450 nm at 240 nm/min on a Beckman DU 640 spectrophotometer (Beckman Coulter, Inc., Fullerton, Calif.). Amax in the 280–320 nm range was determined and converted to molar absorptivity for the UVB region, and Amax in the 320–400 nm range was determined and converted to molar absorptivity for the UVA region.

[3] = in vivo; details: Artemia salina (brine shrimp), in vivo; for LC50 at 24 h: other: exposure in seawater in microplate wells
Description: (§1) Brine shrimp eggs (Artemia salina) were obtained from Brine Shrimp Direct, Ogden, Utah and stored at 10° C. until used. Eggs (400 mg) were added to 1 l of deionized water containing 40 g of sea salts (Sigma Chemical Co., St. Louis, Mo.).
(§2) Serial dilutions were performed in 100 μl of seawater in triplicate in the wells of a 96-well microplate to give appropriate concentrations. Control wells for both water and DMSO were included with each experiment. […] The number of non-motile, and the total number of, naupli were counted in each well using a binocular microscope (10×).

[4] = Solubility in refined meadowfoam seed oil (HPLC); type: physicochemical; details: oil or lipid, thermodynamic from solid, cooled to room temperature overnight
Description: Typical retention times were 7–9 min for the thioureas. Samples were weighed accurately (about 0.1 g) into 1.00 g of refined meadowfoam seed oil and heated to temperature (either 30° C. or 50° C.) for 4 h with occasional shaking. The samples were cooled to room temperature overnight, centrifuged and 0.3 g of the supernatant oil was removed and diluted with 1 ml CHCl3 for testing.

[5] = Decomposition temperature by differential scanning calorimetry; type: physicochemical; details: DSC, onset of decrease in slope of temperature-heat flow curve; unit not given (scans in ° C.)
Description: A dual cell Perkin Elmer differential scanning calorimeter (PE DSC 7, Norwalk, Conn.) was used to determine the thermal transitions of the compounds. All scans were carried out from 30° C. to 200° C. at a heating and cooling rate of 10° C./minute and 40° C./min, respectively, except for 1-(3-methoxybenzyl)-3-(1-propenyl) thiourea, for which the scans were carried out from 0° C. to 200° C. at a heating rate of 10° C./min, and 1-(3-methoxybenzyl)-3-octadecyl thiourea, for which both the heating and cooling rates were 10° C./min. 1,3-di(3-methoxybenzyl) thiourea and 1-(3-methoxybenzyl)-3-dodecyl thiourea were heated to 300° C., and 1-(3-methoxybenzyl)-3-(4-methoxybenzoyl) thiourea was heated to 250° C. to determine the decomposition temperature. The decomposition temperature was taken as the onset of a decrease in the slope of the temperature-heat flow DSC curve. The first heating curve was recorded in all cases, and liquid nitrogen was used to quench the samples after the first heating.

[6] = test system: Brine Shrimp (Artemia Salina); assay: in vivo; details: for LC50: in vivo; for toxicity against brine shrimp, in words: as Table 7 shows
Description: as §1, §2

[7] = Oxidative Stability Index (OSI) of refined meadowfoam seed oil plus additives
Description: A presently preferred method of determining oxidative stability of lipids and oils employs the Oxidative Stability Index (OSI), which determines the oxidative stability of an oil by passing air through a sample under stringent temperature control. (Firestone, Oxidative Stability Index (OSI): Official Methods of Recommended Practices of the American Oil Chemists' Society (AOCS), 4th Ed. American Oil Chemists Society, Champaign, Ill., AOCS Official Method Cd 12b-92, 1993.) In this method, a stream of air is passed through the oil sample, which aids in the rapid degradation of the triglyceride into volatile organic acids. The air stream flushes the volatile acids from the oil into a conductivity cell containing water where the acids are solubilized. These acids, once dissolved in the water solution, disassociate into ions, thus changing the conductivity of the water. Therefore, a continuous measure of the conductivity of the cell by computer will indicate when a rapid rise in the conductivity occurs that corresponds to the induction point, oxidative failure of the sample. The time to the induction point is the OSI time. […] Saturated fatty acid methyl ester (FAME) standards commercially available from Alltech Associates (Deerfield, Ill.) may be used to calibrate the OSI determinations.
OSI determinations may be performed on an oxidative stability instrument manufactured by Omnion (Rockland, Mass.) using the AOCS method described in the above-disclosed Firestone reference. Lipid or oil samples may be run at 110° C. and FAMEs may be tested at 90° C., with air flow set at 35 kPa with a resulting velocity of about 140 ml/min. A presently preferred method for determining OSI values is described by T. A. Isbell et al., “Oxidative Stability Index of Vegetable Oils in Binary Mixtures with Meadowfoam Oil,” Industrial Crops and Products 9, 115–123 (1999).
Unless otherwise stated, Oxidative Stability Index (OSI) values were determined on 5.00 ±0.05 g lipid or oil samples in triplicate according to AOCS Official Method Cd 12b-92 (AOCS, 1993) at 90° C., 110° C. and/or 130° C. on an oxidative stability instrument manufactured by Omnion (Rockland, Mass.). Details of the procedure have been published by Isbell et al., “Oxidative Stability Index of Vegetable Oils in Binary Mixtures with Meadowfoam Oil,” Ind. Crops Prod. 9, 115–123 (1999). When compounds of the present invention were added to the lipid or oil sample being tested, the compounds (0.1% to 1.0% by weight) were added to the test lipid or oil (20 g) and dissolved or dispersed at room temperature before triplicate 5.00 g samples of lipid or oil with an added compound of the invention were weighed into the OSI test tube.
The 1,3-di(3-methoxybenzyl) thiourea prepared in Example 3 was mixed at 0.1%, 0.5% or 1.0% with refined meadowfoam seed oil (Lot #CW-4551, The Fanning Corp) and the oxidative stability of the mixtures was compared to that of refined meadowfoam seed oil at 130° C. The OSI times were 49.8 h, 159 h and 172 h, respectively, for the mixtures containing the thiourea compared to an OSI time of 14.9 h for this lot of refined meadowfoam seed oil with no additives at 130° C.
Thus, 1,3-bis(2-methoxyphenyl)-2-thiourea (Aldrich Chem Co.) added at 0. […] Likewise, 1,3-bis(3-methoxyphenyl)-2-thiourea at 0. 1% added to refined meadowfoam oil gave an OSI time of 27.0 h, an […] lower value than for the 1,3-di-(3-methoxybenzyl) thiourea produced in Example 3.

[8] = Behaviour on addition of water to DMSO solution (sample preparation); type: physicochemical; details: dissolved in 50 μl DMSO, water added to make 1 mg/ml
Description: Test compounds (1–2 mg) were originally made up at a concentration of 1 mg/ml in artificial seawater, except for water insoluble compounds, which were dissolved in 50 μl of dimethyl sulfoxide (DMSO) prior to adding enough water to make a 1 mg/ml solution. Serial dilutions were performed in 100 μl of seawater in triplicate in the wells of a 96-well microplate to give appropriate concentrations. Control wells for both water and DMSO were included with each experiment. A 100 μl solution of naupli (10–30) was added to each well, and the covered plate was incubated for 24 h at 27° C. The number of non-motile, and the total number of, naupli were counted in each well using a binocular microscope (10×). LC50 values were then calculated by Probit analysis (Finney, D. J., 1971, “Probit Analysis,” 3rd Ed.; University Press: Cambridge [Eng.]).

[9] = heated to 30° C. for 4 h, read-out: Solubility at 30° C.
[10] = heated to 50° C. for 4 h, read-out: Solubility at 50° C.
[11] = refined meadowfoam seed oil plus additive 0.1%, 130° C.
[12] = refined meadowfoam seed oil plus additive 0.5%, 130° C.
[13] = refined meadowfoam seed oil plus additive 1.0%, 130° C.
[14] = refined meadowfoam oil, 0.1% additive, 130° C.
[15] = refined meadowfoam oil, 0.1% additive, 130° C. (Example 8)

Structure (SMILES) | Oxidative Stability (RBOT) [1] [min] | UVBMAX Molar Absorptivity [2] | UVAMAX Molar Absorptivity [2] | LC50 at 24 h [3] [µg/mL] | solubility at 4 h [4, 9] [µg/mL] | solubility at 4 h [4, 10] [µg/mL] | Decomposition Temperature [5] [°C] | other results
COc1ccc(C(=O)NC(=S)NCc2cccc(OC)c2)cc1 [1-(3-methoxybenzyl)-3-(4-methoxybenzoyl) thiourea] | 24 | 34090 | 1420 | 58 (≈ 176 µM) | 2760 (≈ 8350 µM) | 1930 (≈ 5830 µM) | > 200 | –
Cc1c(C)c2c(c(C)c1O)CC[C@@](C)(CCC[C@H](C)CCC[C@H](C)CCCC(C)C)O2 [D-α-tocopherol, reference compound] | – | – | – | – | – | – | – | LC50 [6]: >1000 µg/mL
COc1cccc(C=O)c1 [3-methoxybenzaldehyde] | – | – | – | – | – | – | – | OSI Time [7, 11]: 17.5 h; OSI Time [7, 12]: 17.4 h; OSI Time [7, 13]: 18.9 h
CCCCCCCCCCCCNC(=S)NCc1cccc(OC)c1 [1-(3-methoxybenzyl)-3-dodecyl thiourea] | 41 | 2625 | 0.0 | 3.8 (≈ 10.4 µM) | 1040 (≈ 2860 µM) | 909 (≈ 2490 µM) | 273 | Oxidative stability in the RBOT test, in words ([1]; addition of 0.1% compound): doubled; toxicity against brine shrimp, in words [6]: high enough to consider its use in therapeutic tests for killing cancer cells; behaviour upon the addition of water [8]: precipitated out of solution
COc1ccccc1NC(=S)Nc1ccccc1OC [1,3-bis(2-methoxyphenyl)-2-thiourea] | – | – | – | – | – | – | – | OSI time lower than for 1,3-di-(3-methoxybenzyl) thiourea [7, 14]: 34%; OSI Time [7, 15]: 37.1 h
COc1cccc(CN)c1 [3-methoxybenzyl amine] | – | – | – | – | – | – | – | OSI Time [7, 11]: 22.9 h; OSI Time [7, 12]: 27.3 h; OSI Time [7, 13]: 32.6 h
COc1ccc(O)c(C(C)(C)C)c1 [butylated hydroxy aniline (BHA), butylated hydroxy aniline, reference compound] | – | – | – | – | – | – | – | LC50 [6]: 12.2 µg/mL (≈ 67.7 µM)
COc1cccc(CNC(=S)NCc2ccccc2)c1 [1-(3-methoxybenzyl)-3-benzyl thiourea] | 26 | 2357 | 0.0 | 31.6 (≈ 110 µM) | 1050 (≈ 3670 µM) | 1040 (≈ 3620 µM) | > 200 | –
COc1cccc(CN=C=S)c1 [3-methoxybenzyl isothiocyanate] | – | – | – | – | – | – | – | OSI Time [7, 11]: 19.1 h; OSI Time [7, 12]: 22.9 h; OSI Time [7, 13]: 24.0 h
C=CCNC(=S)NCc1cccc(OC)c1 | 24 | 2852 | 0.0 | – | 1670 (≈ 7070 µM) | 981 (≈ 4150 µM) | > 200 | LC50 [3]: 232 µg/mL (≈ 982 µM); toxicity against brine shrimp, in words [6]: low toxicity
O=C1O[C@H]([C@@H](O)CO)C(O)=C1O [ascorbic acid, reference compound] | – | – | – | 315 (≈ 1790 µM) | – | – | – | –
CCCCCCCCCCCCCCCCCCNC(=S)NCc1cccc(OC)c1 [1-(3-methoxybenzyl)-3-octadecyl thiourea] | 15 | 850 | 0.0 | 62.5 (≈ 139 µM) | 280 (≈ 624 µM) | 147 (≈ 328 µM) | > 200 | behaviour upon the addition of water [8]: precipitated out of solution
COc1cccc(CC#N)c1 [3-methoxyphenyl acetonitrile] | – | – | – | – | – | – | – | OSI Time [7, 11]: 18.6 h; OSI Time [7, 12]: 19.2 h; OSI Time [7, 13]: 19.9 h
O=C(O)/C=C/c1ccccc1 [trans-cinnamic acid, reference compound] | – | 22350 | 54 | – | – | – | – | –
COc1cccc(NC(=S)Nc2cccc(OC)c2)c1 [1,3-bis(3-methoxyphenyl)-2-thiourea] | – | – | – | – | – | – | – | OSI time lower than for 1,3-di-(3-methoxybenzyl) thiourea [7, 14]: 84%; OSI Time [7, 15]: 27.0 h
